Measured values taken from the supplement of paper PMC13380429.

Assays:
[1] = tested on: A549-ACE2 infected with SARS-CoV-2; experiment: SARS-CoV-2 infection rate relative to DMSO; higher = more infection; conditions: 24 h
A549-ACE2 [2] = experiment: phospholipidosis EC50; higher = less potent phospholipidosis inducer
[3] = tested on: A549-ACE2 infected with SARS-CoV-2; experiment: cell count relative to DMSO; higher = less toxic; conditions: 24 h
HepG2 [4] = experiment: relative viability EC50 (midpoint between 100% and the lowest measured viability); higher = less toxic; conditions: 72 h
Caco-2 [5] = experiment: as above; conditions: 72 h
Vero E6 [6] = experiment: as above; conditions: 72 h
U2OS [7] = experiment: as above; conditions: 72 h
[8] = tested on: A549-ACE2 infected with SARS-CoV-2; experiment: morphology score (similarity to uninfected cells); higher = more like uninfected cells; conditions: 24 h
Calu-3 [9] = experiment: cell viability relative to DMSO; higher = less toxic; conditions: 72 h
HepG2 [10] = experiment: as above; conditions: 72 h
Caco-2 [11] = experiment: as above; conditions: 72 h
Vero E6 [12] = experiment: as above; conditions: 72 h
U2OS [13] = experiment: as above; conditions: 72 h
Calu-3 [14] = experiment: drug sensitivity score (DSS) for viability; higher = more toxic; extreme values may be limits of the assay; conditions: 72 h
HepG2 [15] = experiment: as above; conditions: 72 h
Caco-2 [16] = experiment: as above; conditions: 72 h
Vero E6 [17] = experiment: as above; conditions: 72 h
U2OS [18] = experiment: as above; conditions: 72 h
A549-ACE2 [19] = experiment: drug-induced phospholipidosis relative to tamoxifen; higher = more phospholipidosis
Calu-3 [20] = experiment: relative viability EC50 (midpoint between 100% and the lowest measured viability); higher = less toxic; conditions: 72 h

C[C@@H]1CN(CCCn2c3ccccc3c3ccccc32)C[C@H](C)N1 [rimcazole]
Conditions | SARS-CoV-2 infection rate [%] | cell count [%] | cell viability [%] | morphology score | phospholipidosis EC50 [µM]
A549-ACE2 [2], 24 h | – | – | – | – | 2.9
A549-ACE2 [2], 48 h | – | – | – | – | 5.12
A549-ACE2 [2], 72 h | – | – | – | – | 5.72
Caco-2 [11], 1 nM | – | – | 96 | – | –
Caco-2 [11], 10 nM | – | – | 99.5 | – | –
Caco-2 [11], 100 nM | – | – | 93.4 | – | –
Caco-2 [11], 1000 nM | – | – | 90.8 | – | –
Caco-2 [11], 10000 nM | – | – | 87 | – | –
Calu-3 [9], 1 nM | – | – | 103 | – | –
Calu-3 [9], 10 nM | – | – | 88.6 | – | –
Calu-3 [9], 100 nM | – | – | 100 | – | –
Calu-3 [9], 1000 nM | – | – | 90.2 | – | –
Calu-3 [9], 10000 nM | – | – | 60.1 | – | –
HepG2 [10], 1 nM | – | – | 106 | – | –
HepG2 [10], 10 nM | – | – | 105 | – | –
HepG2 [10], 100 nM | – | – | 98 | – | –
HepG2 [10], 1000 nM | – | – | 106 | – | –
HepG2 [10], 10000 nM | – | – | 76.4 | – | –
U2OS [13], 1 nM | – | – | 100 | – | –
U2OS [13], 10 nM | – | – | 98.1 | – | –
U2OS [13], 100 nM | – | – | 105 | – | –
U2OS [13], 1000 nM | – | – | 96.8 | – | –
U2OS [13], 10000 nM | – | – | 96.4 | – | –
Vero E6 [12], 1 nM | – | – | 97.9 | – | –
Vero E6 [12], 10 nM | – | – | 97.9 | – | –
Vero E6 [12], 100 nM | – | – | 94.4 | – | –
Vero E6 [12], 1000 nM | – | – | 98.2 | – | –
Vero E6 [12], 10000 nM | – | – | 81.7 | – | –
[1], 0.3 µM | 104 | – | – | – | –
[1], 3 µM | 43 | – | – | – | –
[1], 10 µM | 13 | – | – | – | –
[1], 30 µM | 41 | – | – | – | –
[3], 0.3 µM | – | 108 | – | – | –
[3], 3 µM | – | 122 | – | – | –
[3], 10 µM | – | 117 | – | – | –
[3], 30 µM | – | 101 | – | – | –
[8], 0.3 µM | – | – | – | 0.08 | –
[8], 3 µM | – | – | – | 0.76 | –
[8], 10 µM | – | – | – | 0.81 | –
[8], 30 µM | – | – | – | 0.11 | –

Conditions | drug sensitivity score | relative viability EC50 [µM]
Caco-2 [5] | – | > 10
Caco-2 [16] | 0.2 | –
Calu-3 [14] | 3.5 | –
HepG2 [4] | – | > 10
HepG2 [15] | 0.6 | –
U2OS [7] | – | > 10
U2OS [18] | 0 | –
Vero E6 [6] | – | > 10
Vero E6 [17] | 0.7 | –

drug-induced phospholipidosis [%], A549-ACE2 [19]
Conditions | 0.3 µM | 0.833333 µM | 3.33333 µM | 6.66667 µM | 10 µM | 30 µM
24 h | 4.49 | 10.3 | 68.5 | 99.3 | 102 | 118
48 h | 7.19 | 8.94 | 52.5 | 90.8 | 105 | 135
72 h | 8.99 | 8.76 | 45.8 | 87 | 106 | 137

Cc1csc(NC(=O)CSc2ccc(-c3ccccc3)nn2)n1
Conditions | SARS-CoV-2 infection rate, [1] [%] | cell count, [3] [%] | cell viability, Caco-2 [11] [%] | cell viability, Calu-3 [9] [%] | cell viability, HepG2 [10] [%] | cell viability, U2OS [13] [%] | cell viability, Vero E6 [12] [%] | morphology score, [8]
1 nM | – | – | 92.1 | 85 | 97.8 | 98 | 101 | –
10 nM | – | – | 93.4 | 99.1 | 109 | 97.3 | 102 | –
100 nM | – | – | 103 | 104 | 90.4 | 102 | 99.1 | –
0.3 µM | 105 | 97 | – | – | – | – | – | -0.03
1000 nM | – | – | 97 | 99.3 | 89.1 | 99.3 | 105 | –
3 µM | 88 | 97 | – | – | – | – | – | 0.29
10 µM | 92 | 107 | – | – | – | – | – | 0.25
10000 nM | – | – | 104 | 108 | 87.4 | 104 | 94.5 | –
30 µM | 84 | 100 | – | – | – | – | – | 0.25

Conditions | drug sensitivity score | relative viability EC50 [µM]
Caco-2 [5] | – | > 10
Caco-2 [16] | 0 | –
Calu-3 [14] | 0 | –
Calu-3 [20] | – | > 10
HepG2 [4] | – | > 10
HepG2 [15] | 1.2 | –
U2OS [7] | – | > 10
U2OS [18] | 0 | –
Vero E6 [6] | – | > 10
Vero E6 [17] | 0 | –

drug-induced phospholipidosis [%], A549-ACE2 [19]
Conditions | 0.3 µM | 0.833333 µM | 3.33333 µM | 6.66667 µM | 10 µM | 30 µM
24 h | 1.93 | -1.81 | -0.96 | 2.15 | 1.89 | 7.11
48 h | 2.87 | 0.35 | 1.94 | 5.23 | 4.85 | 15.6
72 h | 2.21 | 0.253 | 3.17 | 3.1 | 6.16 | 24.6
